We go through 19 compounds from patent publication US5166214A, “Use of imidazoles for the treatment of atherosclerosis” (priority 1990, dated 1992).

Assay [1] addresses T1, Acyl-CoA: Cholesterol Acyltransferase (ACAT) (Rattus norvegicus, UniProt Q7TQM4).
T1 construct: Microsomes were obtained by differential centrifugation; from tissue; host or cells: liver microsomes of male Sprague Dawley rats
T1 sequence (Q7TQM4 1-524): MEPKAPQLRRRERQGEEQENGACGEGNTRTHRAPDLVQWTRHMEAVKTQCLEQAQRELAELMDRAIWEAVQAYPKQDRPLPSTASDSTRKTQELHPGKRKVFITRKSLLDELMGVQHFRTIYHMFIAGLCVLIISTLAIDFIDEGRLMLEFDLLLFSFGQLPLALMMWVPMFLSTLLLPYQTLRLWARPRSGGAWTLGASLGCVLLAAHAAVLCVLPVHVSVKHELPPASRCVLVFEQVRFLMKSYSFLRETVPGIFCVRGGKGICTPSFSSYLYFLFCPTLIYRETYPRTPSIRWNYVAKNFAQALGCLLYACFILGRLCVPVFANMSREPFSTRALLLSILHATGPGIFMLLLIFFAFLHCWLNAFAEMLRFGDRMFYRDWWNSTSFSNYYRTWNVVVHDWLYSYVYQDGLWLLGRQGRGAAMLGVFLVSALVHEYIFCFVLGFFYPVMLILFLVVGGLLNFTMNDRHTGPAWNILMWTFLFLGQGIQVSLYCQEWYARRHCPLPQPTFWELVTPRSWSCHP
The experiment in a line: Inhibition of acyl-CoA: cholesterol acyltransferase (ACAT) in hepatic microsomes (in vitro). It counts as biochemical, rat (male Sprague Dawley). The following applies: rat hepatic microsomes, 75 μM 14C-oleoyl-CoA, pH 7.4, 37° C.; read-out: In Vitro ACAT IC50. Here is the method:
A. Assay of the Inhibition of Acyl-CoA: Cholesterol Acyltransferase (ACAT) in Hepatic Microsomes
The ability of the compounds to inhibit ACAT, the enzyme responsible for the intracellular synthesis of cholesteryl esters, was tested as follows. Male Sprague Dawley rats weighing 150-300 g, were fed rat chow ad libitum. The animals were fasted for twenty-four hours prior to being sacrificed by decapitation. The livers were perfused in situ with 50 ml of cold 0.25M sucrose, excised, and homogenized in three volumes of 0.1M phosphate buffer, pH 7.4, that contained 0.5 mM EDTA (ethylenediaminetetraacetic acid), 1.0 mM glutathione, 0.25M sucrose and […]. Microsomes were obtained by differential centrifugation; the supernatant from an initial spin at 15,000×g for 15 minutes was centrifuged at 105,000×g for 1 hour to pellet the microsomes. The microsomes were suspended in homogenization buffer, reisolated by centrifugation, and stored at -70° C. Microsomes were used within one month of preparation.
The control assay in a final volume of 200 μl consisted of 200 μg of microsomal protein, 75 μM ^14 C-oleoyl-CoA (10,000 dpm/nmol) in 0.1M phosphate, pH 7.4, that contained 1 mM glutathione. Compounds were added in 5 μl of DMSO (dimethyl sulfoxide) and additional controls were run with DMSO only. All components, except the oleoyl-CoA, were preincubated for 15 min. at 37° C. prior to the initiation of the reaction by the addition of oleoyl-CoA. The assay was terminated after 10 min by the addition of 4 ml of chloroform:methanol (2:1, v/v). 20,000 dpm of ^3 H-cholesteryl oleate and 10 μg of unlabeled cholesteryl oleate and oleic acid were added as an internal standard and carriers, respectively. After allowing 10 min. for lipid extraction, the samples were centrifuged at 1,000×g for 10 min. to separate the solvent layers. The chloroform layer containing the neutral lipids was spotted onto a Baker SI250-Pa silica gel TLC plate and the plate developed using a hexane: diethyl ether: acetic acid (170:30:1 v/v/v) mobile phase. The lipids were visualized by their interaction with iodine vapor and the cholesteryl ester spot was scraped into a scintillation vial and counted.

In assay [2] the test system is murine macrophage-like cell line J774.A1. The experiment in a line: Inhibition of cholesterol esterification in mammalian cells (macrophage assay). The class given is cell-based. Particulars: J774.A1 macrophages loaded with ac-LDL, 14C-oleic acid; read-out: Cholesterol Esterification IC50. In a few lines: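 Murine J774.A1 macrophages at 37 °C received 34 μg acetylated human LDL in 10% FBS-DMEM from 24 h, compound in DMSO at 41 h, then a 0.1 mM 14C-oleic acid–BSA pulse from 43 to 45 h. Labelled cholesteryl ester was separated by TLC, counted and normalised to Lowry protein.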

With `CCCCCCCN(CCCCCSc1nc(-c2ccc(O)cc2)c(-c2ccc(O)cc2)[nH]1)C(=O)Nc1ccc(F)cc1F` [Example 209, N-[5-[4,5-bis(4-hydroxyphenyl)-1H-imidazol-2-ylthio]pentyl]-N'-(2,4-difluorophenyl)-N-heptylurea], the results for the IC50 in assay [1] and in assay [2] were 1400 nM and 4800 nM, respectively.
For `CCCCCCCN(CCCCCSc1nc(-c2ccccc2OC)c(-c2ccccc2OC)[nH]1)C(=O)Nc1ccc(F)cc1F` [Example 196, N-[5-[4,5-bis(2-methoxyphenyl)-1H-imidazol-2-ylthio]pentyl]-N'-(2,4-difluorophenyl)-N-heptylurea] the same measures were 300 nM and 1400 nM.
Turning to `CCCCCCCN(CCCCCSc1nc(-c2cccc(OC)c2)c(-c2cccc(OC)c2)[nH]1)C(=O)Nc1ccc(F)cc1F` [Example 195, N-[5-[4,5-bis(3-methoxyphenyl)-1H-imidazol-2-ylthio]pentyl]-N'-(2,4-difluorophenyl)-N-heptylurea], the results for the IC50 in assay [1] and in assay [2] were 40 nM and 400 nM, respectively.
Taken in the same sequence, the figures for `CCCCCCCN(CCCCCSc1nc(-c2ccccc2)c(-c2ccccc2)[nH]1)C(=O)Nc1ccccc1` [Example 2, N-[5-(4,5-diphenyl-1H-imidazol-2-ylthio)pentyl]-N-heptyl-N'-phenylurea] were 3 nM and 800 nM.
Taken in the same sequence, the figures for `CCCCN(CCCCCCCCSc1nc(-c2ccccc2)c(-c2ccccc2)[nH]1)C(=O)Nc1ccc(F)cc1F` [Example 4, N-butyl-N'-(2,4-difluorophenyl)-N-[8-(4,5-diphenyl-1H-imidazol-2-ylthio)octyl]urea] were 60 nM and 4600 nM.
Regarding `CCCCCCCN(CCCCCSc1nc2c([nH]1)-c1ccccc1Oc1ccccc1-2)C(=O)Nc1ccc(F)cc1F` [Example 212, N-[5-(1H-dibenz[2,3:6,7]oxedino[4,5-d]imidazol-2-ylthio)pentyl]-N'-(2,4-difluorophenyl)-N-heptylurea], the values for the IC50 in assay [1] and in assay [2] were 60 nM and 1700 nM, respectively.
For the compound `CCCCCCCN(CCCCCSc1nc(-c2ccccn2)c(-c2ccccn2)[nH]1)C(=O)Nc1ccc(F)cc1F` [Example 107, N-[5-[4,5-bis(2-pyridinyl)-1H-imidazol-2-ylthio]pentyl]-N'-(2,4-difluorophenyl)-N-heptylurea], the IC50 (usually the concentration that inhibits the measured activity by half) in assay [1] was determined as 1000 nM; in assay [2], 2300 nM.
In the case of `CCCCCCCCNC(=O)N(CCCCCCC)CCCCCSc1nc(-c2ccccc2)c(-c2ccccc2)[nH]1` [Example 97, N-[5-(4,5-diphenyl-1H-imidazol-2-ylthio)pentyl]-N-heptyl-N'-octylurea], the IC50 in assay [1] came out at 25 nM; in assay [2] it was 700 nM.
Regarding `CCCCCCCN(CCCCCSc1nc(-c2ccccc2)c(-c2ccccc2)[nH]1)C(=S)Nc1cccc(F)c1` [Example 300, N-[5-(4,5-diphenyl-1H-imidazol-2-ylthio)pentyl]-N'-(3-fluorophenyl)-N-heptylthiourea], the IC50 in assay [1] was 130 nM; in assay [2] it was 900 nM.
Turning to `CCCCCCCN(CCCCCSc1nc(-c2ccccc2)c(-c2ccccc2)[nH]1)C(=O)OCc1ccccc1` [Example 408, (Phenylmethyl) [5-(4,5-diphenyl-1H-imidazol-2-ylthio)pentyl]heptylcarbamate], the IC50 in assay [1] came to 9 nM; in assay [2], 1300 nM.
For `CCCCCCCN(CCCCCSc1nc(-c2ccccc2)c(-c2ccc(N(C)C)cc2)[nH]1)C(=O)Nc1ccc(F)cc1F` [Example 200], the results for the 50% inhibitory concentration (IC50) in assay [1] and in assay [2] were 710 nM and 800 nM, respectively.
With `CCCCCCCN(CCCCCSc1ncc[nH]1)C(=O)Nc1ccc(F)cc1F` [Example 186], the concentration for half-maximal inhibition (IC50) in assay [1] was 2850 nM; in assay [2] it was 6200 nM.
For `CCCCCCCN(CCCC)CCCCCSc1nc(-c2ccccc2)c(-c2ccccc2)[nH]1` [Example 352], the IC50 in assay [1] was found to be 300 nM; in assay [2], 2200 nM.
For `CCCCCCCN(CCCCCSc1nc(-c2ccccc2)c(-c2ccccc2)[nH]1)C(=O)OCC(C)C` [Example 403, (2-Methylpropyl) [5-(4,5-diphenyl-1H-imidazol-2-ylthio)pentyl]heptylcarbamate] the same measures were 35 nM and 500 nM.
Regarding `CCCCCCCN(CCCCCSc1nc(-c2ccccc2)c(-c2ccccc2)[nH]1)C(=S)NCCC` [Example 299, N-[5-(4,5-diphenyl-1H-imidazol-2-ylthio)pentyl]-N-heptyl-N'-propylthiourea], the IC50 in assay [1] was determined as 140 nM; in assay [2] it was 1200 nM.
For `CCCCCCCN(CCCCCSc1nc(-c2ccccc2)c(-c2ccccc2)[nH]1)C(=O)Nc1ccc(OC)cc1OC` [Example 5, N'-(2,4-dimethoxyphenyl)-N-[5-(4,5-diphenyl-1H-imidazol-2-ylthio)pentyl]-N-heptylurea] the same measures were 12 nM and 2500 nM.
Taken in the same sequence, the figures for `CCCCCCCN(CCCCCSc1nc(-c2ccccc2)c(-c2ccccc2)[nH]1)C(=O)NC` [Example 7, N-[5-(4,5-diphenyl-1H-imidazol-2-ylthio)pentyl]-N-heptyl-N'-methylurea] were 41 nM and 7500 nM.
Turning to `CCCCCCCN(CCCCCSc1nc(C(C)C)c(C(C)C)[nH]1)C(=O)Nc1ccc(F)cc1F` [Example 188, N-[5-[4,5-bis(1-methylethyl)-1H-imidazol-2-ylthio]pentyl]-N'-(2,4-difluorophenyl)-N-heptylurea], the IC50 in assay [1] came to 20 nM; in assay [2] it was 900 nM.
Taken in the same sequence, the figures for `CCCN(CCSc1nc(-c2ccccc2)c(-c2ccccc2)[nH]1)C(=O)Nc1ccc(F)cc1F` [Example 9, N'-(2.4-difluorophenyl)-N[-2-(4,5-diphenyl-1H-imidazol-2-ylthio)ethyl]-N-propylurea] were 930 nM and 11200 nM.
